Measured values: ChEMBL document CHEMBL5512696, “Discovery of a Novel ASM Direct Inhibitor with a 1,5-Diphenyl-pyrazole Scaffold and Its Antidepressant Mechanism of Action” (J Med Chem, 2024)

Legend:
[1] = Neurotoxicity against human SH-SY5Y cells assessed as reduction in cell viability at 5 to 20 uM by CCK-8 assay; format: toxicity, cell-based; settings: dose 5-20 µM
[2] = Neurotoxicity against human SH-SY5Y cells assessed as reduction in cell viability at 100 uM by CCK-8 assay; format: toxicity, cell-based
[3] = Neurotoxicity against human SH-SY5Y cells assessed as cell survival rate at 5 to 20 uM by CCK-8 assay relative to control; format: toxicity, cell-based; settings: dose 5-20 µM, read-out: Survival
SH-SY5Y = assay: Neuroprotective activity against corticosterone induced human SH-SY5Y cells assessed as protection against corticosterone induced cell damage measured after 24 hrs by CCK-8 assay; format: functional, cell-based; settings: dose 5-20 µM
[4] = Metabolic stability in human liver microsomes assessed as half life at 1 uM incubated for 60 mins by LC-MS/MS analysis; format: ADME, Microsome
[5] = Metabolic stability in human liver microsomes assessed as intrinsic clearance at 1 uM incubated for 60 mins by LC-MS/MS analysis; format: ADME, Microsome; settings: read-out: CLH
[6] = Half life in male ICR mouse at 1 mg/kg, iv measured upto 480 mins by LC-MS/MS analysis; format: ADME, organism-based; settings: in vivo, 8 h
[7] = Tmax in male ICR mouse at 1 mg/kg, iv measured upto 480 mins by LC-MS/MS analysis; format: ADME, organism-based; settings: in vivo
[8] = Cmax in male ICR mouse at 1 mg/kg, iv measured upto 480 mins by LC-MS/MS analysis; format: ADME, organism-based; settings: in vivo
[9] = AUC (0 to t) in male ICR mouse at 1 mg/kg, iv measured upto 480 mins by LC-MS/MS analysis; format: ADME, organism-based; settings: in vivo
[10] = AUC (0 to infinity) in male ICR mouse at 1 mg/kg, iv measured upto 480 mins by LC-MS/MS analysis; format: ADME, organism-based; settings: in vivo, 8 h
[11] = Observed MRT (0 to infinity) in male ICR mouse at 1 mg/kg, iv measured upto 480 mins by LC-MS/MS analysis; format: ADME, organism-based; settings: in vivo
[12] = Observed apparent volume of distribution in male ICR mouse at 1 mg/kg, iv measured upto 480 mins by LC-MS/MS analysis; format: ADME, organism-based; settings: in vivo, 8 h
[13] = Observed clearance in male ICR mouse at 1 mg/kg, iv measured upto 480 mins by LC-MS/MS analysis; format: ADME, organism-based; settings: in vivo, 8 h
[14] = Bioavailability in male ICR mouse at 1 mg/kg, iv measured upto 480 mins by LC-MS/MS analysis; format: ADME, organism-based; settings: in vivo
[15] = AUC (0 to infinity) in male ICR mouse at 10 mg/kg, ip measured upto 480 mins by LC-MS/MS analysis; format: ADME, organism-based; settings: in vivo
[16] = AUC (0 to t) in male ICR mouse at 10 mg/kg, ip measured upto 480 mins by LC-MS/MS analysis; format: ADME, organism-based; settings: in vivo
[17] = Cmax in male ICR mouse at 10 mg/kg, ip measured upto 480 mins by LC-MS/MS analysis; format: ADME, organism-based; settings: in vivo
[18] = Half life in male ICR mouse at 10 mg/kg, ip measured upto 480 mins by LC-MS/MS analysis; format: ADME, organism-based; settings: in vivo
[19] = Observed MRT (0 to infinity) in male ICR mouse at 10 mg/kg, ip measured upto 480 mins by LC-MS/MS analysis; format: ADME, organism-based; settings: in vivo
[20] = Drug concentration in male ICR mouse plasma at 1 mg/kg, iv measured after 30 mins by LC-MS/MS analysis; format: ADME, organism-based
[21] = Drug concentration in male ICR mouse plasma at 1 mg/kg, iv measured after 60 mins by LC-MS/MS analysis; format: ADME, organism-based
[22] = Drug concentration in male ICR mouse brain at 1 mg/kg, iv measured after 30 mins by LC-MS/MS analysis; format: ADME, organism-based; settings: read-out: Ct
[23] = Drug concentration in male ICR mouse brain at 1 mg/kg, iv measured after 60 mins by LC-MS/MS analysis; format: ADME, organism-based; settings: read-out: Ct
[24] = Ratio of drug concentration in male ICR mouse brain to plasma at 1 mg/kg, iv measured after 30 mins by LC-MS/MS analysis; format: ADME, organism-based; settings: read-out: BPR

O=C(NO)c1cc(-c2ccc(Br)cc2)n(-c2ccc(Cl)cc2)n1
Activity [1]: Non-Toxic
Activity [2]: Toxic
viability [3]: > 78%
Activity (SH-SY5Y): Dose-Dependent Effect
half-life at 1 µM [4]: 111 min
microsomal CLint at 1 µM [5]: 15.6 µL/min/mg
t1/2 [6]: 18.6 min
Tmax [7]: 15 min
Cmax [8]: 2590 ng/mL
AUC(0-t) at 8 h [9]: 921 ng·h/mL
AUC [10]: 928.07 ng·h/mL
MRT inf [11]: 15 min
Vz [12]: 3.29201 L/kg
CL [13]: 45.8798 mL/min/kg
bioavailability [14]: 39.6%
AUC(0-inf) [15]: 3650 ng·h/mL
AUC(0-t) at 8 h [16]: 3640 ng·h/mL
Cmax [17]: 4200 ng/mL
half-life [18]: 50.4 min
MRT inf [19]: 52.8 min
concentration at 0.5 h [20]: 223 ng/mL
concentration at 1 h [21]: 55.6 ng/mL
concentration at 0.5 h [22]: 83.1 ng/mL
concentration at 1 h [23]: 31.9 ng/mL
Kp at 0.5 h [24]: 0.37
